Consider six compounds from publication PMC6691063, “Increased Body Weight and Fat Mass After Subchronic GIP Receptor Antagonist, but Not GLP-2 Receptor Antagonist, Administration in Rats” (Frontiers in Endocrinology, 2019).

Read-outs that look alike come from different tables or passages of the source. Where only a bound is given, the exact number is not on record here.

In series [1] the test system is Male Wistar rats. The experiment in a line: Subchronic treatment in rats: food intake, body weight, body composition (EchoMRI). The class given is in vivo, rat. The following applies: vs vehicle, n = 6/group; for Food intake: measured twice a week, cage means; for Body weight: monitored weekly. The procedure: All experiments were in accordance with internationally accepted principles for the care and use of laboratory animals and in compliance with an animal experiment license (2013/15–2934-00833) issued (to JH) by the Danish Committee for Animal Research. Male Wistar rats (Taconic, Denmark) weighing ~200 g at the time of arrival were housed two in each cage at the Panum Institute, Copenhagen, Denmark. They were kept in temperature- (21°C) and humidity-controlled (55%) rooms with light/dark cycles of 12 h with free access to standard rat chow and water.
(§1) After 1 week of acclimatization, animals were allocated into five groups (n = 6/each group). Rats received either vehicle, rat GIP(3-30)NH2, (25 nmol/kg b.w.), human (Pro3)GIP (25 nmol/kg b.w.), human GLP-2(3-33) (25 nmol/kg b.w.), or human GLP-2(11-33) (25 nmol/kg b.w.) sc daily at 6 PM for 3 weeks. […] To study bone resorption, blood was collected from the sublingual vein of rats at −2, −1, 0, 6, 10, 14, 17, 21 days of treatment. The day after the last injection, the rats were euthanized and blood was collected from the vena cava for further biochemical analysis. The liver was excised and samples were snap-frozen in liquid nitrogen and stored at −80°C until assayed.
Food intake was measured twice a week during the study period at 10 AM by subtracting the leftover weights from the initial weights and calculated as cage means (g/rat). Body weight was monitored weekly at 10 AM. Measures of body lean and fat mass were determined in live, conscious animals using quantitative magnetic resonance spectroscopy (EchoMRI-700TM; Echo MRI).

For series [2], the system named is Male Wistar rats. The series can be described thus: Bone resorption: serum CTX (RatLaps) during subchronic treatment. The class given is in vivo, rat. The following applies: 25 nmol/kg b.w. sc once daily for 3 weeks, days 0-21, percent of individual baseline, vs vehicle, n = 6/group.
Excerpt: as §1
(§2) To obtain serum, blood samples were allowed to clot for 30 min and were then centrifuged (10 min at 3,000 × g) and stored at −20°C until analysis. To obtain plasma, blood was collected into chilled tubes containing in final concentrations EDTA 3.9 mmol/l and valine-pyrolidide 0.01 mmol/l (a DPP-4 inhibitor, a gift from Novo Nordisk A/S, Bagsvaerd, Denmark). The samples were centrifuged (10 min at 3,000 × g, 4°C) and plasma was kept at −80°C until analysis.
(§3) Bone resorption was assessed by measurements of degradation product from C-terminal cross linked telopeptides of type 1 collagen (CTX, RatLaps; IDS Immunodiagnostic Systems GmbH, Frankfurt am Main, Germany). CTX values were expressed as percent of the mean of the baseline values (days−2,−1, 0) of the individual animal. The intra- and interassay coefficient of variation (CV's) of the assay is in the range 6–10 and 10–15%, respectively. Resistin was measured using rat resistin enzyme immunoassay kit (Bertinpharma, Montigny le Bretonneux, France). The intra-assay CV is <5%, the inter-assay <10%. Leptin was measured using rat leptin enzyme immunoassay kit (Mediagnost, Reutlingen, Germany). The intra- and inter-assay CV are <5%. Adiponectin was measured using rat adiponectin ELISA kit (Millipore, St. Charles, Missouri, USA). The intra- and inter-assay CV are <2 and <9%, respectively. LPL was measured using lipoprotein lipase ELISA kit (Cell Biolabs, San Diego, CA, USA). The intra- and inter-assay CV are <4 and <8%, respectively. All samples were analyzed in duplicates in the same assay to prevent inter assay variation.

For series [3] the following is noted: cited from earlier work. The source says:
Glucose-dependent insulinotropic peptide (GIP) and glucagon-like peptide-2 (GLP-2) are peptide hormones released from K and L cells of the gastrointestinal tract, respectively ([1], [2]). Both exert their functions through activation of specific G protein-coupled receptors ([3], [4]). The GIP receptor (GIPR) is expressed on different cell type including pancreatic cells, adipocytes ([5]), osteoblasts ([6]), and osteoclasts ([7]). The GLP-2 receptor (GLP-2R) is widely expressed in gastrointestinal tract and central nervous system ([8]–[10]) but fewer are found in the liver, vagal afferents, and ...

For series [4], the system named is Male Wistar rats. The experiment in a line: Plasma and intrahepatic triglycerides after subchronic treatment. The class given is in vivo, rat. The following applies: 25 nmol/kg b.w. sc once daily for 3 weeks, vs vehicle, n = 6/group; for Intrahepatic triglyceride content: liver lipid extract; for Plasma triglyceride levels: terminal blood.
Excerpt: as §1, §2
Total liver lipids were extracted as previously described ([31]). The extracts were evaporated under vacuum in a rotary evaporator and re-suspended in 1 ml of isopropanol for quantification of triglycerides. Plasma and intrahepatic triglycerides were assessed using triglyceride determination kit (Sigma-Aldrich, Saint Louis, USA). All samples were analyzed in duplicates in the same assay to prevent inter assay variation.

In series [5] the test system is Male Wistar rats. The experiment in a line: Plasma lipoprotein lipase (LPL) ELISA after subchronic treatment. The class given is in vivo, rat. The following applies: 25 nmol/kg b.w. sc once daily for 3 weeks, vs vehicle, n = 6/group.
Excerpt: as §1, with “assayed. […]” for “assayed.”
Bone resorption was assessed by measurements of degradation product from C-terminal cross linked telopeptides of type 1 collagen (CTX, RatLaps; IDS Immunodiagnostic Systems GmbH, Frankfurt am Main, Germany). CTX values were expressed as percent of the mean of the baseline values (days−2,−1, 0) of the individual animal. […] Resistin was measured using rat resistin enzyme immunoassay kit (Bertinpharma, Montigny le Bretonneux, France). […] Leptin was measured using rat leptin enzyme immunoassay kit (Mediagnost, Reutlingen, Germany). […] Adiponectin was measured using rat adiponectin ELISA kit (Millipore, St. Charles, Missouri, USA). […] LPL was measured using lipoprotein lipase ELISA kit (Cell Biolabs, San Diego, CA, USA). […]

In series [6] the test system is Male Wistar rats. The series can be described thus: Plasma adipokines (leptin, resistin, adiponectin) after subchronic treatment. The class given is in vivo, rat. The following applies: 25 nmol/kg b.w. sc once daily for 3 weeks, vs vehicle, n = 6/group.
Excerpt: as §1, §2, §3

A further series concerns the target rat GIPR. Conditions: acts as a partial agonist at the rat GIPR, elsewhere ref 22, 25; cited from earlier work.
Series [7] in a line: Pharmacokinetic study of GIP(3-30)NH2, plasma radioimmunoassay. The class given is in vivo, rat. The procedure:
Samples were taken at 0, 5, 10, 20, 30, and 45 min post-injection of GIP(3-30)NH2. Blood was immediately aliquoted into tubes containing final concentrations of EDTA 3.9 mmol/l. Samples were centrifuged (3,000 × g for 10 min at 4°C) and the plasma stored at −80°C until analysis. GIP(3-30)NH2 concentrations were measured in plasma with an in-house-developed radioimmunoassay ([50]) using a polyclonal antibody (code no. 95236) raised in rabbits against porcine GIP(1-30)NH2. As standard we used rat GIP(3-30)NH2 and the tracer was ^125I-labeled human GIP(3-30NH2).

The mark [8] stands for this setting: 25 nmol/kg b.w. sc once daily for 3 weeks.

Take “GLP-2(11-33): Synthetic human GLP-2(11-33), GLP-2R antagonist, from Caslo laboratory (NTILDNLAARDFINWLIQTKITD; Glucagon-like peptide 2; UniProt P01275 156-178, looked up, fragment)”: in the series on Male Wistar rats [1] (setting [8]), the Food intake entry is recorded as “did not modify” and the Body weight entry is on record as “did not modify”. Further, in the series with Male Wistar rats [2], the “Serum CTX levels (bone resorption)” value is listed as “did not change”.

On to glucagon-like peptide-2 [GLP-2], for which the Half-life result in series [3] (human, in vivo) was “about 7 min”.

Broadly, the Ki is a dissociation constant, usually derived from enzyme kinetics or from competition with a known ligand. For the compound (Pro3)GIP, in the series with Male Wistar rats [1] (25 nmol/kg b.w. sc once daily for 3 weeks, NMR (EchoMRI)), the “Body composition (total fat and lean mass)” value is on record as “not associated with changes”. In addition, in the series with Male Wistar rats [1] (setting [8]), the Food intake result is given as “not associated with changes” and the Body weight result is “not associated with changes”. Further, in the series on Male Wistar rats [4], the Intrahepatic triglyceride content result was “did not modify” and the Plasma triglyceride levels entry is given as “did not modify”. In addition, the “Plasma lipoprotein lipase (LPL) levels” value in the series with Male Wistar rats [5] is “did not modify”. In the series on Male Wistar rats [6] (leptin, resistin, adiponectin (Figure 2)), the “Plasma levels of adipokines” value is listed as “did not modify”. In the series with Male Wistar rats [2], the “Serum CTX levels (bone resorption)” value is reported as “did not affect”. In addition, the Ki at rat GIPR was 19 nM.

In the case of “Glucose-dependent insulinotropic peptide [GIP]”, in series [3] (humans, DPP-4 mediated degradation), the Half-life result is recorded as “about 7 min”.

For the compound “GLP-2(3-33): Synthetic human GLP-2(3-33), GLP-2R antagonist, from Caslo laboratory (DGSFSDEMNTILDNLAARDFINWLIQTKITD; Glucagon-like peptide 2; UniProt P01275 148-178, looked up, fragment)”, in the series with Male Wistar rats [1] (setting [8]), the Food intake result was “did not modify” and the Body weight entry is listed as “did not modify”. For the same compound, the “Serum CTX levels (bone resorption)” value in the series with Male Wistar rats [2] was “did not change”.

As to `CC[C@H](C)[C@H](NC(=O)[C@H](CO)NC(=O)[C@H](Cc1ccc(O)cc1)NC(=O)[C@H](CC(=O)O)NC(=O)[C@H](CO)NC(=O)[C@@H](NC(=O)[C@H](Cc1ccccc1)NC(=O)[C@@H](NC(=O)CNC(=O)[C@@H](N)CCC(=O)O)[C@@H](C)O)[C@@H](C)CC)C(=O)N[C@@H](C)C(=O)N[C@@H](CCSC)C(=O)N[C@@H](CC(=O)O)C(=O)N[C@@H](CCCCN)C(=O)N[C@H](C(=O)N[C@@H](CCCNC(=N)N)C(=O)N[C@@H](CCC(N)=O)C(=O)N[C@@H](CCC(N)=O)C(=O)N[C@@H](CC(=O)O)C(=O)N[C@@H](Cc1ccccc1)C(=O)N[C@H](C(=O)N[C@@H](CC(N)=O)C(=O)N[C@@H](Cc1c[nH]c2ccccc12)C(=O)N[C@@H](CC(C)C)C(=O)N[C@@H](CC(C)C)C(=O)N[C@@H](C)C(=O)N[C@@H](CCC(N)=O)C(=O)N[C@@H](CCCCN)C(N)=O)C(C)C)[C@@H](C)CC` [GIP(3-30)NH2], the Lean mass result with Male Wistar rats [1] (25 nmol/kg b.w. sc once daily for 3 weeks, NMR spectroscopy (EchoMRI)) is “no difference”. Also, the Body fat mass result in the series on Male Wistar rats [1] (25 nmol/kg b.w. sc once daily for 3 weeks, end of treatment, NMR spectroscopy (EchoMRI)) was “increased”. The Food intake entry in the series on Male Wistar rats [1] (setting [8]) is recorded as “no measurable effect”. In addition, in the series on Male Wistar rats [1] (25 nmol/kg b.w. sc once daily), the “Body weight gain, first 2 weeks of treatment” value is reported as “did not show differences”. For the same compound, in the series on Male Wistar rats [1] (25 nmol/kg b.w. sc once daily, p < 0.05), the “Body weight gain, third week of treatment” value is given as “significantly increased”. In the series with Male Wistar rats [4], the Intrahepatic triglyceride content result was “failed to change” and the Plasma triglyceride levels entry was “increased”. Further, the “Plasma lipoprotein lipase (LPL) levels” value in the series with Male Wistar rats [5] is “significantly enhanced”. Besides, the Plasma adiponectin result in the series with Male Wistar rats [6] (ELISA) was “no significant effect”. Moreover, in the series with Male Wistar rats [6] (enzyme immunoassay), the Plasma leptin entry was “increased” and the Plasma resistin entry was “no significant effect”. In the series with Male Wistar rats [2], the “Serum CTX levels (bone resorption)” value was “did not affect”. In series [7] (rat plasma, after administration, in-house radioimmunoassay, data not shown, read-out: Maximum plasma concentration), the Cmax was roughly 17 nM. For the same compound, the Tmax in series [7] (rat plasma, in-house radioimmunoassay, data not shown, read-out: Time of maximum plasma concentration after administration (converted)) is 10 min. Further, in series [7] (rat plasma, in-house radioimmunoassay, read-out: Half-life after injection), the Half-life is roughly 20 min. In addition, the “Duration of exposure for the antagonist” value in series [7] (rat, concluded from peak level and half-life) was no more than 2 h.
